Measured values: patent US20110178015A1, “METHODS OF TREATMENT USING BIASED LIGANDS FOR RECEPTORS SUCH AS THE PTH RECEPTOR” (priority 2007, published 2011)

Assays:
[1] = biological target: type I PTH/PTH-related peptide receptor (PTH1R), endogenous in primary murine osteoblasts (mouse) (UniProt P41593); assay: cell-based or functional assay
PTH1 receptor = details: Gardella 1996; Sneddon 2004; Bisello 2002; cited from earlier work
[2] = biological target: T1, AT1A angiotensin receptor (Rattus norvegicus, UniProt P25095); details: cited from earlier work
T1 sequence (P25095 1-359): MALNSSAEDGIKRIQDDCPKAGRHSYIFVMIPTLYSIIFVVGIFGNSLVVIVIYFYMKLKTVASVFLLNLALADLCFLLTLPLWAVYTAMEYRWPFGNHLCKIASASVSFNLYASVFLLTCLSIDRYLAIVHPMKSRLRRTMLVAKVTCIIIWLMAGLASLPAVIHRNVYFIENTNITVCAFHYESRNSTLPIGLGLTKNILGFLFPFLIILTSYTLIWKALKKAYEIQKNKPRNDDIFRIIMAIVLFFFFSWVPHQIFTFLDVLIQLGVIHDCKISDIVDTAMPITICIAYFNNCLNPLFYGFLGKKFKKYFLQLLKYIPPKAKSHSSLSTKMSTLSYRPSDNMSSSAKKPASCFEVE

Chain of type I PTH/PTH-related peptide receptor (PTH1R), endogenous in primary murine osteoblasts (mouse) (P41593 27-591): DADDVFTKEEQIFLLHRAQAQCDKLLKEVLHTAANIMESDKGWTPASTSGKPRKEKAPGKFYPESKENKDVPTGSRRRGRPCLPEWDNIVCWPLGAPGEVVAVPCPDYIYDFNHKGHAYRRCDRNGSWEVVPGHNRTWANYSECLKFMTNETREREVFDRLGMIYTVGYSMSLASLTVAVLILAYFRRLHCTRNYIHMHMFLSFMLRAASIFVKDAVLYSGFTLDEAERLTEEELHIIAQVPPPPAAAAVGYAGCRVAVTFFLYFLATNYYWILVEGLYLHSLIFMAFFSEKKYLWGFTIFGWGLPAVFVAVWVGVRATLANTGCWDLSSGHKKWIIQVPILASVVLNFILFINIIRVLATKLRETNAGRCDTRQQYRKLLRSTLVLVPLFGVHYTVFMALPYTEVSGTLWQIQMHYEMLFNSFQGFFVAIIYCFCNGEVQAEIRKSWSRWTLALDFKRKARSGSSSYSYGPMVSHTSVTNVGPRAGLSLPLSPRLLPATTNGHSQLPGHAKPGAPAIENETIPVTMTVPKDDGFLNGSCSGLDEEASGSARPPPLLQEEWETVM

(D-Trp12, Tyr34)-PTH(7-34) (from UniProt P01268 38-65) (peptide)
ERK1/2 phosphorylation in WT primary osteoblasts, 1 µM PTH-βarr, 5 min (fold over basal) [1]: 3

PTH(1-34) (peptide)
ERK1/2 phosphorylation in WT primary osteoblasts, 100 nM PTH(1-34), 5 min (fold over basal) [1]: 3

Trp^l-PTHrP(1-36) (WVSEHQLLHDKGKSIQDLRRRFFLHHLIAEIHTAEI; Parathyroid hormone-related protein; UniProt P12272 37-72, looked up, variant A1W) [PTHrP analog promoting Gs-coupling without β-arrestin recruitment, reference compound]
PTH1 receptor-Gs coupling / cAMP production (PTH1 receptor): promoting Gs-coupling and cAMP production | arrestin-dependent sequestration / β-arrestin recruitment (PTH1 receptor): without inducing β-arrestin recruitment or desensitization

[Sar1,Ile4,Ile8]SII
G protein-independent/β-arrestin-dependent signaling to ERK1/2 [2]: selectively stimulating G protein-independent/β-arrestin-dependent 7TMR signaling to ERK1/2
